Values of other authors as cited in patent publication US20100056547A1, “OPHTHALMIC COMPOSITIONS COMPRISING dDC” (ALLERGAN, INC., priority 2005, published 2010).

Experiments:
viral conjunctivitis = details: topical ophthalmic administration; Gordon et al., Cornea 15(5): 546, 1996
adenoviral strains = details: for inhibition of adenoviral strains: Kaneko et al., J. Jpn. Ophthalmol. Soc. 107:196-201 (2003)

| Structure (SMILES) | effectiveness in treating viral conjunctivitis (viral conjunctivitis) | inhibition of adenoviral strains (adenoviral strains) | EC50 values (ranking among NMSO3, HPMPC, dDC) (adenoviral strains; adenoviral strains, Kaneko et al. 2003) |
| --- | --- | --- | --- |
| Nc1ccn(C[C@@H](CO)OCP(=O)(O)O)c(=O)n1 [cidofavir] | effective | – | – |
| Nc1ccn([C@H]2CC[C@@H](CO)O2)c(=O)n1 [dDC, 2′,3′-Dideoxycytidine] | – | inhibited adenoviral strains | – |
| CCCCCCCCCCCCCCCCCCCCCCOCC(C)(COCCCCCCCCCCCCCCCCCCCCCC)CO[C@]1(C(=O)O)C[C@H](OS(=O)(=O)O)[C@@H](NC(C)=O)[C@H]([C@H](OS(=O)(=O)O)[C@@H](COS(=O)(=O)O)OS(=O)(=O)O)O1 [NMSO3] | – | inhibited adenoviral strains | lowest |
| Nc1ccn(C[C@@H](CO)OCP(=O)(O)O)c(=O)n1 [HPMPC] | – | inhibited adenoviral strains | – |
